pIC50: −log10 of the molar value.
How the values were obtained:
KYSE-30 cells = experiment: Cancer cell line proliferation assay, ATP-based cell viability (Cell Titre Glow), KYSE-30 (normal CCNE1); conditions: Homo sapiens, KYSE-30 cells (normal CCNE1), concentration that achieves 50% cell growth proliferation inhibition, read-out: KYSE30 Gl50
Procedure, shortened: (§1)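 GI50 reflects half-maximal growth inhibition by PKMYT1 inhibitors, derived by curve fitting of CellTiter-Glo luminescence signals.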

OVCAR 3 cells = experiment: Cancer cell line proliferation assay, ATP-based cell viability (Cell Titre Glow), OVCAR 3 (CCNE1-amplified); conditions: KYSE30 (normal CCNE1) GI50 vs. OVCAR 3 (CCNE1-amplified) GI50
Procedure, shortened: as §1

[1] = target: T1, Cellular PKMYT1 Biomarker CDK1 pT14 (Homo sapiens, UniProt Q99640); experiment: Inhibition of cellular PKMYT1 biomarker CDK1 pT14 in OVCAR 3 cells (immunoblot); format: cell-based; conditions: 20 hours incubation
T1 construct: read-out CDK1 phospho-T14 immunoblot
T1 sequence (Q99640 1-499): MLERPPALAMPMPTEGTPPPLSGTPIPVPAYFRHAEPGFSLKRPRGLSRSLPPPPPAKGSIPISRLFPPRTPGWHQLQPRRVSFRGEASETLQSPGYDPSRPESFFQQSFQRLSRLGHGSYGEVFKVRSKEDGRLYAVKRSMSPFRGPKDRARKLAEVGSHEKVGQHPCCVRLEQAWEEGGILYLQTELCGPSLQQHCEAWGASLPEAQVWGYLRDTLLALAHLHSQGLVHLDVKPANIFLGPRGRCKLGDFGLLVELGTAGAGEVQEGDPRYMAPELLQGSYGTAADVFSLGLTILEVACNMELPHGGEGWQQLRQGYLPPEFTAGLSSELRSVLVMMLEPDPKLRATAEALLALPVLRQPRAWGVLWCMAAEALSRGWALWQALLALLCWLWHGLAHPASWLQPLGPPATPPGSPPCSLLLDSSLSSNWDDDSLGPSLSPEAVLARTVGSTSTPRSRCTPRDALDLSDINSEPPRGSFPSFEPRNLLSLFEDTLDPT
Procedure, shortened: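 Confluent OVCAR 3 cells treated with a compound concentration range for 20 h at 37 °C. Lysates analysed by automated capillary immunoblot for CDK1 phospho-T14, with vinculin, fluorescence detection; IC50 by regression.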

WEE1 = target: T2, WEE1 (Homo sapiens, UniProt P30291); experiment: Selectivity versus WEE1 assay (ADP-Glo enzymatic assay); format: biochemical; conditions: for pIC50: WEE1 15 nM, ADP-Glo, banded values; for PKMYT1 vs. WEE1 selectivity: fold difference in selectivity for PKMYT1 over WEE1, banded
T2 construct: purchased Thermo Fisher PR7373A
T2 sequence (P30291 whole entry): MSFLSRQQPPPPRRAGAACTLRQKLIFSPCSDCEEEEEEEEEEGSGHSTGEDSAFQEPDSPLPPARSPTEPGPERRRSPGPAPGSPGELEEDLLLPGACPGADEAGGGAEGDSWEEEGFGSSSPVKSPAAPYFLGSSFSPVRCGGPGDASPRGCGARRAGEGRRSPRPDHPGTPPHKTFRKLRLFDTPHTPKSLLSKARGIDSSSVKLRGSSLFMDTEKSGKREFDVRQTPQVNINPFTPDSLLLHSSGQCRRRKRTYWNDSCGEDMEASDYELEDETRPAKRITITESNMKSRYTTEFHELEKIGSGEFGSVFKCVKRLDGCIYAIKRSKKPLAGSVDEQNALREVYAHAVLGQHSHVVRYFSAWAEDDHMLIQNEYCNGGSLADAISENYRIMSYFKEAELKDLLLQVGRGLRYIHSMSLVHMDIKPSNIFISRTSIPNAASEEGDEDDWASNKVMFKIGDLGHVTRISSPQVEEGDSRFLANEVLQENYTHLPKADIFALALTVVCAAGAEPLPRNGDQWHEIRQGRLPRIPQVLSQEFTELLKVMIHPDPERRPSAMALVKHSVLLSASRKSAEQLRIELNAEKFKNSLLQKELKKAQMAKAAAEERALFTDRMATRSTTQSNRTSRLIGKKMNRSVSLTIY
Procedure, shortened: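 ADP-Glo luminescent read-out after a 60-min, 26 °C kinase reaction of 15 nM WEE1 with 30 µM ATP, in HEPES pH 7.5 buffer containing MgCl2, EGTA, Brij-35 and 1% DMSO. IC50 accepted only when replicate values agree within 3-fold and curve fit r2 exceeds 0.9.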

Human PKMYT1 = target: T3, Human PKMYT1 (Homo sapiens, UniProt Q99640); experiment: PKMYT1 biochemical ADP-Glo enzymatic assay; conditions: PKMYT1 kinase domain 15 nM; ADP-Glo; banded values
T3 construct: Human PKMYT1 75-362 was cloned as a TEV cleavable 6xHis fusion; 6xHis (TEV cleavable) (cleaved yes); made in house; host or cells: bacterial cells
T3 sequence (Q99640 75-362): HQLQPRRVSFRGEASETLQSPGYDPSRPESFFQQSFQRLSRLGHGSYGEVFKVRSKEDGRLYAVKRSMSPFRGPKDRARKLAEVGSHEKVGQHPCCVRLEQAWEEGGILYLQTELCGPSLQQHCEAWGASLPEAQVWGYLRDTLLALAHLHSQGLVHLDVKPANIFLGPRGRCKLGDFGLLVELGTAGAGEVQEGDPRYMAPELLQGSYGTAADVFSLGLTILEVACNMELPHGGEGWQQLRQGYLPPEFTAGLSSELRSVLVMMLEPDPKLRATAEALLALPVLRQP
Procedure, shortened: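 IC50 values come from 10-point 3-fold series, with replicates required within 3-fold and r2 >0.9. ADP formed by PKMYT1 intrinsic ATPase (500 uM ATP, 60 min, 26° C.) was quantified by ADP-Glo luminescence. The enzyme was the TEV-cleaved kinase domain 75-362 at 15 nM, in HEPES pH 7.5 buffer.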

SMILES	GI50 (KYSE-30 cells) [nM]	Selectivity ratio KYSE30 Gl50 vs. OVCAR3 Gl50 (OVCAR 3 cells)	pIC50 [1]	pIC50 (WEE1)	PKMYT1 vs. WEE1 selectivity (WEE1)	pIC50 (Human PKMYT1)
Cc1ccc(O)c(C)c1NC(=O)c1cnc(Nc2cccc(-c3cccnc3)n2)s1 [BAA-397, 2-([2,3′-bipyridin]-6-ylamino)-N-(3-hydroxy-2,6-dimethylphenyl)thiazole-5-carboxamide]	500 to 5000	Y (>20 fold)	> 7.00	4.96 to 6.00	W (10-<100 fold)	> 7.30
Cc1cn(-c2ccn(C)n2)nc1Nc1ncc(C(=O)Nc2c(C)ccc(O)c2C)s1 [BAA-398, 2-((1′,4-dimethyl-1′H-[1,3′-bipyrazol]-3-yl)amino)-N-(3-hydroxy-2,6-dimethylphenyl)thiazole-5-carboxamide]	500 to 5000	Y (>20 fold)	> 7.00	4.96 to 6.00	X (100-<1000 fold)	> 7.30
Cc1ccc(O)c(C)c1NC(=O)c1cnc(Nc2cccc(N(C)CCC#N)n2)s1 [BAA-401, 2-((6-((2-cyanoethyl)(methyl)amino)pyridin-2-yl)amino)-N-(3-hydroxy-2,6-dimethylphenyl)thiazole-5-carboxamide]	500 to 5000	Y (>20 fold)	> 7.00	4.96 to 6.00	W (10-<100 fold)	> 7.30
Cc1ccc(O)c(C)c1NC(=O)c1cnc(Nc2cc(N3CCOCC3)ccn2)s1 [BAA-402, N-(3-hydroxy-2,6-dimethylphenyl)-2-((4-morpholinopyridin-2-yl)amino)thiazole-5-carboxamide]	500 to 5000	Y (>20 fold)	> 7.00	6.00 to 7.30	W (10-<100 fold)	> 7.30
Cc1cccc(Nc2ncc(C(=O)Nc3c(C)ccc(O)c3C)s2)n1 [BAA-407, N-(3-hydroxy-2,6-dimethylphenyl)-2-((6-methylpyridin-2-yl)amino)thiazole-5-carboxamide]	> 5000	Y (>20 fold)	> 7.00	4.96 to 6.00	X (100-<1000 fold)	> 7.30
Cc1ccc(O)c(C)c1NC(=O)c1cnc(Nc2cccc(C3CC3)n2)s1 [BAA-409, 2-((6-cyclopropylpyridin-2-yl)amino)-N-(3-hydroxy-2,6-dimethylphenyl)thiazole-5-carboxamide]	500 to 5000	Y (>20 fold)	> 7.00	4.96 to 6.00	X (100-<1000 fold)	> 7.30
Cc1ccc(O)c(C)c1NC(=O)c1cnc(Nc2nc(N3CCOCC3)ccc2Cl)s1 [BAA-410, 2-((3-chloro-6-morpholinopyridin-2-yl)amino)-N-(3-hydroxy-2,6-dimethylphenyl)thiazole-5-carboxamide]	500 to 5000	Y (>20 fold)	> 7.00	4.96 to 6.00	X (100-<1000 fold)	> 7.30
Cc1ccc(O)c(C)c1NC(=O)c1cnc(Nc2nc(N3CCN(C)CC3)ccc2Cl)s1 [BAA-414, 2-((3-chloro-6-(4-methylpiperazin-1-yl)pyridin-2-yl)amino)-N-(3-hydroxy-2,6-dimethylphenyl)thiazole-5-carboxamide]	500 to 5000	Y (>20 fold)	> 7.00	4.96 to 6.00	X (100-<1000 fold)	> 7.30
Cc1ccc(O)c(C)c1NC(=O)c1cnc(Nc2cccc(N(C)C)n2)s1 [BAA-417, 2-((6-(dimethylamino)pyridin-2-yl)amino)-N-(3-hydroxy-2,6-dimethylphenyl)thiazole-5-carboxamide]	500 to 5000	Y (>20 fold)	6.00 to 7.00	< 4.96	X (100-<1000 fold)	> 7.30
COc1ccnc(Nc2ncc(C(=O)Nc3c(C)ccc(O)c3C)s2)c1 [BAA-418, N-(3-hydroxy-2,6-dimethylphenyl)-2-((4-methoxypyridin-2-yl)amino)thiazole-5-carboxamide]	500 to 5000	Y (>20 fold)	> 7.00	4.96 to 6.00	X (100-<1000 fold)	> 7.30
Cc1cc(F)cnc1Nc1ncc(C(=O)Nc2c(C)ccc(O)c2C)s1 [BAA-419, 2-((5-fluoro-3-methylpyridin-2-yl)amino)-N-(3-hydroxy-2,6-dimethylphenyl)thiazole-5-carboxamide]	> 5000	Y (>20 fold)	6.00 to 7.00	< 4.96	Y (1000-5000 fold)	> 7.30
Cc1ccc(F)c(Nc2ncc(C(=O)Nc3c(C)ccc(O)c3C)s2)n1 [BAA-420, 2-((3-fluoro-6-methylpyridin-2-yl)amino)-N-(3-hydroxy-2,6-dimethylphenyl)thiazole-5-carboxamide]	500 to 5000	Y (>20 fold)	> 7.00	< 4.96	Y (1000-5000 fold)	> 7.30
Cc1ccc(O)c(C)c1NC(=O)c1cnc(Nc2ccccn2)s1 [BAA-421, N-(3-hydroxy-2,6-dimethylphenyl)-2-(pyridin-2-ylamino)thiazole-5-carboxamide]	500 to 5000	Y (>20 fold)	> 7.00	< 4.96	X (100-<1000 fold)	> 7.30
Cc1ccnc(Nc2ncc(C(=O)Nc3c(C)ccc(O)c3C)s2)c1 [BAA-422, N-(3-hydroxy-2,6-dimethylphenyl)-2-((4-methylpyridin-2-yl)amino)thiazole-5-carboxamide]	500 to 5000	Y (>20 fold)	> 7.00	4.96 to 6.00	X (100-<1000 fold)	> 7.30

Source: patent US20260297042A1, “BIARYLAMIDE DERIVATIVES AND THEIR USE AS PKMYT1 INHIBITORS” (CANCER RESEARCH TECHNOLOGY LIMITED, priority 2023, published 2026)
